According to patent publication US10973865B2, “Method of making solanaceae fruit extracts” (Provexis Natural Products Limited, priority 2008, dated 2021):
In brackets after ≈: the same amount, converted by molar mass. One block for each compound: values may come before it.

Tests used:
Format in all cases: cell-based, human
[1] = system: platelet aggregation induced by ADP in platelet-rich plasma; assay: Inhibition of ADP-induced platelet aggregation in platelet-rich plasma (aggregometer); settings: amount in mg inhibiting aggregation by 50% in 1 mL platelet-rich plasma, ADP 10 μmol/L, average of at least 3 IC50s; for IC50: Homo sapiens
Procedure: (§1) The experimental protocol described below was devised to determine the […] values of compounds isolated as described in 1.1.3. Crude bioassays to evaluate inhibition of platelet aggregation in vitro were performed on some crude extracts (data not shown) to help select fine fractions/compounds identified by HPLC for functional activity. This approach was considered necessary to avoid the need to assay each and ever compound (the would be thousands) in the fruit extracts.
(§2) An IC50 value represents the amount of a compound, in mg, required to inhibit by 50% the platelet aggregation induced under standardised conditions in 1 mL platelet-rich plasma, in comparison with control samples.
(§3) Blood for in vitro studies was collected from drug-free, healthy human volunteers, both male and female, aged 18-60 years, with normal platelet function. Subjects declared that they had not consumed drugs or supplements known to affect platelet function for a minimum of 10 days before providing a blood sample. Blood was collected after single venepuncture to an antecubital vein through siliconized needles into plastic citrated blood collection tubes (Sarstedt Monovettes, final concentration sodium citrate, 13 mmol/L). All blood was maintained at 37° C. from the time of blood sampling.
(§4) Platelet-rich plasma (PRP) was obtained by centrifugation of citrated blood for 15 minutes at 200×g, and was adjusted with platelet-poor plasma to a standard platelet number of 320±20×10^9/L prior to use. PRP was used for platelet function measurements within two hours.
(§5) The following agonists were used for platelet function measurements. Adenosine diphosphate (ADP), final concentration 10 μmol/L; collagen, final concentration 5 mg/L; arachidonic acid, final concentration 500 U/L (all from Helena Biosciences, Sunderland, UK); thrombin receptor-activating peptide (TRAP), final concentration 25 nmol/L (Sigma-Aldrich, Poole, UK). Agonists were prepared from stock solutions immediately before use, diluting into warmed physiological saline (0.9% NaCl).
(§6) Individual platelet inhibitors were prepared at a concentration of between 500 g/L and 100 g/L in either physiological saline, ultra-pure methanol or ultra-pure DMSO (Sigma-Aldrich, Poole, UK) and stored frozen until required. Stock solutions were then diluted with physiological saline immediately prior to use.
(§7) 450 μL PRP was incubated with 50 μL diluted inhibitor solution at 37° C. for 10 minutes, in low-retention epindorrfs. Inhibitor solutions were diluted such that the final concentration of methanol or DMSO in the PRP sample never exceeded 2%. Suitable control samples, containing 50 μL physiological saline matched for methanol or DMSO content as appropriate, were incubated simultaneously. For each inhibitor compound, 5 incubation concentrations were used; final concentrations of 0.05 mg/mL, 0.10 mg/mL, 1.00 mg/mL, 5.00 mg/mL and 10 mg/mL were used as standard.
(§8) After incubation with platelet inhibitors, PRP samples were transferred to glass cuvettes and the extent of aggregation induced by either ADP, collagen, TRAP or arachidonic acid was monitored over 10 minutes on a platelet aggregometer (PACKS 4, Helena Biosciences, Sunderland, UK). A control sample was run with each sample set. From the aggregation curves generated, the area under the curve was calculated for each PRP sample, and the inhibition of aggregation achieved at each inhibitor concentration was calculated by comparing the area under the curve for these PRP samples with that of the control sample. The inhibition of aggregation was expressed as % inhibition, compared to control, and from the 6 data points obtained per inhibitor compound, a dose-response curve was constructed. This curve was then used to predict the IC50 value for that inhibitor compound, as shown in 1.2, Results, and FIG. 1.
(§9) For each blood sample obtained, 6-point dose-response curves for 2 different inhibitory compounds could be generated. […]

[2] = system: platelet aggregation induced by collagen in platelet-rich plasma; assay: Inhibition of collagen-induced platelet aggregation in platelet-rich plasma (aggregometer); settings: amount in mg inhibiting aggregation by 50% in 1 mL platelet-rich plasma, collagen 5 mg/L, average of at least 3 IC50s; for IC50: Homo sapiens
Procedure: as §1, §2, §3, §4, §5, §6, §7, §8, §9

[3] = system: platelet aggregation induced by thrombin receptor-activating peptide (TRAP) in platelet-rich plasma; assay: Inhibition of TRAP-induced platelet aggregation in platelet-rich plasma (aggregometer); settings: amount in mg inhibiting aggregation by 50% in 1 mL platelet-rich plasma, TRAP 25 nmol/L, average of at least 3 IC50s; for IC50: Homo sapiens
Procedure: as §1, §2, §3, §4, §5, §6, §7, §8, §9

[4] = system: platelet aggregation induced by arachidonic acid in platelet-rich plasma; assay: Inhibition of arachidonic acid-induced platelet aggregation in platelet-rich plasma (aggregometer); settings: amount in mg inhibiting aggregation by 50% in 1 mL platelet-rich plasma, arachidonic acid 500 U/L, average of at least 3 IC50s; for IC50: Homo sapiens
Procedure: as §1, §2, §3, §4, §5, §6, §7, §8, §9

IC50 [1]: 13.2 mg/mL (≈ 80.5 mM)
IC50 [2]: 14.6 mg/mL (≈ 89.1 mM)
IC50 [3]: 12.8 mg/mL (≈ 78.1 mM)
IC50 [4]: 10.2 mg/mL (≈ 62 mM)
Compound: O=C(O)/C=C/c1ccc(O)cc1 [Compound 19, p-coumaric acid]

IC50 [1]: 18.7 mg/mL (≈ 96.1 mM)
IC50 [2]: 13.9 mg/mL (≈ 71.6 mM)
IC50 [3]: 14.7 mg/mL (≈ 75.4 mM)
IC50 [4]: 9.94 mg/mL (≈ 51.2 mM)
Compound: COc1cc(/C=C/C(=O)O)ccc1O [Compound 21, Ferulic acid]

IC50 [1]: 35.2 mg/mL (≈ 57.7 mM)
IC50 [2]: 32.2 mg/mL (≈ 52.7 mM)
IC50 [3]: 8.96 mg/mL (≈ 14.7 mM)
Compound: C[C@@H]1O[C@@H](OC[C@H]2O[C@@H](Oc3c(-c4ccc(O)c(O)c4)oc4cc(O)cc(O)c4c3=O)[C@H](O)[C@@H](O)[C@@H]2O)[C@H](O)[C@H](O)[C@H]1O [Compound 27, Rutin]

IC50 [3]: 19.7 mg/mL (≈ 65 mM)
IC50 [4]: 3.66 mg/mL (≈ 12.1 mM)
Compound: O=c1c(O)c(-c2ccc(O)c(O)c2)oc2cc(O)cc(O)c12 [Compound 30, Quercetin]

IC50 [3]: 26.2 mg/mL (≈ 91.5 mM)
IC50 [4]: 5.18 mg/mL (≈ 18.1 mM)
Compound: O=c1c(O)c(-c2ccc(O)cc2)oc2cc(O)cc(O)c12 [Compound 31, Kaempferol]

IC50 [3]: 33.2 mg/mL (≈ 122 mM)
IC50 [4]: 10.4 mg/mL (≈ 38.2 mM)
Compound: O=C1C[C@@H](c2ccc(O)cc2)Oc2cc(O)cc(O)c21 [Compound 32, Naringenin]

The next lines start with the compound.

Compound: Nc1ccn([C@@H]2O[C@H](CO)[C@@H](O)[C@H]2O)c(=O)n1 [Compound 1, Cytidine]
IC50 [1]: 2.42 mg/mL (≈ 9.95 mM)
IC50 [2]: 10.7 mg/mL (≈ 43.8 mM)
IC50 [3]: 39 mg/mL (≈ 160 mM)
IC50 [4]: 39 mg/mL (≈ 160 mM)

Compound: O=c1ccn([C@@H]2O[C@H](CO)[C@@H](O)[C@H]2O)c(=O)[nH]1 [Compound 3, Uridine]
IC50 [1]: 6.51 mg/mL (≈ 26.7 mM)
IC50 [2]: 16 mg/mL (≈ 65.5 mM)

Compound: Nc1nc2c(ncn2[C@@H]2O[C@H](CO)[C@@H](O)[C@H]2O)c(=O)[nH]1 [Compound 4, Guanosine]
IC50 [3]: 26.1 mg/mL (≈ 92 mM)

Compound: O=C(/C=C/c1ccc(O)c(O)c1)O[C@@H]1C[C@](O)(C(=O)O)C[C@@H](O)[C@H]1O [Compound 14, Chlorogenic acid]
IC50 ADP [1]: 10.08 mg
IC50 Collagen [2]: 10.11 mg
IC50 TRAP [3]: 1.1 mg
IC50 AA [4]: 0.77 mg

Compound: O=C(O)/C=C/c1ccc(O)c(O)c1 [Compound 18, Caffeic acid]
IC50 [1]: 19 mg/mL (≈ 105 mM)
IC50 [2]: 11.4 mg/mL (≈ 63.1 mM)
IC50 [3]: 8.03 mg/mL (≈ 44.6 mM)
IC50 [4]: 7.33 mg/mL (≈ 40.7 mM)

Compound: O=C(O)c1ccccc1 [Compound 20, Benzoic acid]
IC50 ADP [1]: 25.11 mg
IC50 Collagen [2]: 17.74 mg
IC50 TRAP [3]: 18.19 mg
IC50 AA [4]: 15.45 mg

Compound: Adenosine 3′-monophospate [Compound 5]
IC50 ADP [1]: 0.12 mg
IC50 Collagen [2]: 0.28 mg
IC50 TRAP [3]: 24.51 mg
IC50 AA [4]: 2.41 mg
